In series [1] the test system is H69 (human small cell lung cancer) tumors. In words: Histology, fraction of necrosis in H69 tumors. It is filed as in vivo, NMRI-Foxn1^nu mice. The procedure:
At an average tumor size of 6.1 mm (range 5.8-6.6 mm) in largest diameter, the tumors are treated with 168 mM CaCl2 injection and electroporation as described in Example 3. Tumors are removed at skin level before treatment, 2 hours, 1, 2 and 6 days after treatment, fixated in formalin (10% neutrally buffered) and paraffin embedded. Subsequently, tissue sections with a thickness of 3 μm are HE-stained according to the routine procedure of the department. The fraction of necrosis within the tumor is estimated from HE-sections by stereological point counting using a light microscope, evaluated by a pathologist, blinded with respect to treatment status.
The difference in fraction of necrosis is assessed using one-way ANOVA with post least-squares-means test with Bonferroni correction for multiple comparisons.

The subject of a further series is DC-3F cells. In words: ATP assay after calcium electroporation. It is filed as cell-based, Chinese hamster. The procedure: DC-3F cells are electroporated as described in Example 1 with 1 mM calcium. Cells electroporated with HEPES buffer, non-electroporated cells with 1 mM calcium, and untreated cells are used as controls. Cell death induced by irreversible electroporation (8 pulses of 6.6 kV/cm with pulse duration of 99 μs) is used as […]. Cells are seeded in 96-well plates at a concentration of 3.1×10^4 cells/100 μl. Cells are lysed using Cell-Based Assay Lysis Buffer (Cayman Chemical, Ann Arbor, Mich.) and ATP content is determined after 1, 4 and 8 hours incubation by adding 100 μl rL/L Reagent (ENLITEN® ATP assay, Promega, Madison, Wis.) and measuring light emission using a luminometer (LUMIstar®, BMG biotechnology, Ortenberg, Germany).
Difference in ATP level after different treatments is assessed using two-way ANOVA with post least-squares-means test with Bonferroni correction for multiple comparisons.

In series [2] the test system is LPB (murine sarcoma) tumors. In words: Fraction of necrosis after calcium electroporation, LPB tumors. It is filed as in vivo, NMRI-Foxn1^nu mice. The procedure:
LPB, a murine sarcoma cell line, B16, a murine malignant melanoma cell line, MDA-MB231, human a breast cancer cell line, HT29, a human colon cancer cell line, and SW780, a human bladder cancer cell line were used for the in vivo experiment. The cells were tested by rapid MAP27 panel (Taconic, Hudson N.Y.) before use without signs of infection. 2×10^5 cells (B16), 8×10^5 cells (LPB), 2.5×10^6 cells (MDA-MB231), and 5×10^6 cells (HT29 and SW780) in 100 μl PBS were injected subcutaneously in the flank of NMRI-Foxn1^nu mice (Harlan, Indianapolis, Ind.) that were 9-11 weeks old. Mice were randomised at a tumor volume above 85 mm^3 and tumors were treated with injection of isotonic calcium-chloride solution (168 mM CaCI2) and electroporation (8 pulses of 1.0 kv/cm for 100 μs and a frequency of 1 Hz) using a 6 mm plate electrode and a square wave electroporator (CLINIPORATOR®, IGEA, Modena, Italy). Tumor volume was calculated as ab^2n/6, where a is the largest diameter and b is the largest diameter perpendicular to a. The injected volume was half of the tumor volume. […] The fraction of necrosis within the tumor was estimated from HE-sections by stereological point counting using a light microscope, evaluated by a pathologist, blinded with respect to treatment status.
The difference in fraction of necrosis at different time after treatment was assessed using student's t-test.

Series [3] relates to skin dermis and subcutis above MDA-MB231 tumor. The experiment in a line: Normal tissue reaction, skin above the tumor. It is filed as in vivo, NMRI-Foxn1nu mice. As to conditions: some of the mice treated with the high concentration and volume of calcium. The protocol:
MDA-MB231, a human breast cancer cell line was used for the in vivo experiments. The cells were tested by rapid MAP27 panel (Taconic, Hudson N.Y.) before use without signs of infection. Cells were maintained in vitro as described in Example 1. 2.5×10^6 cells/100 μl PBS were injected subcutaneously in the flank of NMRI-Foxn1nu mice (Harlan, Indianapolis, Ind.). Tumor pieces were transplanted twice from donor mice to the flank of nude mice that were 13-19 weeks old. HYPNORM™-DORMICUM™ (fentanyl/fluanisone/midazolam; VetaPharma, Leeds, U K and Roche, Basel, Switzerland) was used for anesthesia complemented with RIMADYL® (Carprofen) (Pfizer ApS, Ballerup, Denmark) as well as lidocaine (Region Hovedstadens Apotek, Herlev, Denmark) in the incision. […] Tumor volume was calculated as ab2n/6, where “a” is the largest diameter and “b” is the largest diameter perpendicular to “a”. […] Estimation of normal tissue damages was evaluated semiquantitatively on HE-sections by light[ ]microscopy (LEICA® DM 2000 light microscope, Leica Microsystems, Wetzlar, Germany).
The presence of inflammation in the skin dermis and subcutis was scored from 1-3 (1=minimal, 2=moderate and 3=severe). Edema in the dermis, extravasations of erythrocytes and vasculitis was noted if present, but not scored.

`[Ca+2].[Cl-].[Cl-]` [calcium chloride]: the “fraction of necrosis in tumors, course” value in series [1] (168 mM CaCl2 with electroporation, 2 hours to 6 days) is given as “progressive necrosis”; in series [2] (168 mM CaCl2, half tumor volume, electroporation, first days after treatment), “progressive necrosis”. In addition, the “fraction of necrosis in tumors” value in series [1] (6 days post treatment) is reported as “complete”. For the same compound, the “ATP level, percent of control” value with DC-3F cells (1 mM calcium with electroporation, up to 8 hours after treatment) was determined as 10.3%. In the series with DC-3F cells (1 mM calcium without electroporation), the “effect on ATP levels” value was “does not affect ATP levels”. In series [2] (6 days after the treatment), the tumor re-growth result is reported as “re-growth”. In addition, in series [3], the “ulceration above the tumor” value was “ulceration above the tumor was seen”.

The values above are taken from patent publication US9943599B2, “Therapeutic applications of calcium electroporation to effectively induce tumor necrosis” (Herlev Hospital, priority 2011, dated 2018).
